The data set has as its system MOLM13 cells. The experiment in a line: MOLM13 human leukemia xenograft mouse model. The data set is classed as in vivo. How it is done: FIG. 7. CKII inhibition delays the leukemia progression and improves survival of MLL-AF9 mice and MOLM13 human leukemia mice. (A) Timeline of the MLL-AF9 leukemia mouse model and CKII inhibitor treatment. Drug treatments were started at day 10 after transplantation. (B) Kaplan-Meier survival curves of secondary transplanted C57BL/6 mice after vehicle and CX-4945 treatment at day 10. Vehicle or CX-4945 (50 mg/kg or 75 mg/kg) were administered twice daily by oral gavage for a total of twenty treatments. Leukemia was confirmed at the endpoint for each transplant mouse. The number (n) indicates the number of mice in each group. The p values were calculated using the log rank test. (C) Timeline of the MOLM13 human leukemia xenograft mice. Drug treatments were started at day 5 after transplantation. (D) Kaplan-Meier survival curves of NSGS mice after vehicle and CX-4945 treatment. Vehicle or CX-4945 (50 mg/kg) were administered twice daily by oral gavage for a total of twenty treatments. Leukemia was confirmed at the endpoint for each transplant mouse by flow cytometry, H&E staining and histology analysis. […] The p value was calculated using the log rank test. […]
MLL Murine Xenograft Transplantation and Treatment. […] Mice were monitored for illness including signs of lethargy, ruffled coat, and/or hind limb paralysis at which time mice were sacrificed for analysis. […]
(In general: Xenograft models place foreign cells or tissue in a host animal.)

Regarding `O=C(O)c1ccc2c(c1)nc(Nc1cccc(Cl)c1)c1ccncc12` [CX-4945, 5-(3-chlorophenylamino)benzo[c][2,6]naphthyridine-8-carboxylic acid], the “weight of the mice” value (MOLM13 human leukemia xenograft mouse model, compared with vehicle control group) is “did not affect the weight of the mice”. For the setting “NSGS mice, 50 mg/kg twice daily by oral gavage for ten days, from day 5”, the leukemia free survival entry is “significantly lengthened”.

For the origin of these results see patent US11071727B2, “Therapeutic targeting of proteolytic cleavage of the mixed lineage leukemia gene product (MLL1) by taspase1 using kinase inhibitors” (Northwestern University, priority 2018, dated 2021).
